Source: patent US11802120B2, “Fused cyclic urea derivatives as CRHR2 antagonist” (RaQualia Pharma Inc., priority 2018, dated 2023)

Target: T1, human CRHR2-alpha (Homo sapiens, UniProt Q13324)
T1 sequence (Q13324 1-411): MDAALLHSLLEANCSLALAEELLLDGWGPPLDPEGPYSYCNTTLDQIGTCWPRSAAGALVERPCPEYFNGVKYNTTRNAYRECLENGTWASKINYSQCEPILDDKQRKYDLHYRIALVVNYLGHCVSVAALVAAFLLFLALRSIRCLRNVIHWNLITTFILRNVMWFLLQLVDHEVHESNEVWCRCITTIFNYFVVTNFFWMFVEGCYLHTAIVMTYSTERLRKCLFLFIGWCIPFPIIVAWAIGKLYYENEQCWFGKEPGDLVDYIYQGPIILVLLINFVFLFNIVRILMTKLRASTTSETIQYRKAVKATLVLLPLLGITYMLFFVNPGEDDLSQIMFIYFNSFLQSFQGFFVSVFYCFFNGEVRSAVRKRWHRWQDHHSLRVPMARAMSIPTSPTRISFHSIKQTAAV
Test: cAMP functional assay for human CRHR2 (LANCE Ultra cAMP, TR-FRET)
Assay type: cell-based
Conditions: CHO-K1 cells expressing human CRHR2-alpha, agonist human urocortin2 at EC80, cAMP; read-out: IC50 against CRHR2
How it was run: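 CHO-K1 cells stably expressing each receptor, serum-starved and cryopreserved, were preincubated with compound 30 min at 25° C in HBSS buffer with 0.5 mM IBMX, pH 7.4, then stimulated 30 min with EC80 agonist (urocortin2 for CRHR2, CRF for CRHR1). cAMP read by TR-FRET; IC50 from percent-inhibition curves.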

Compound | IC50
Cc1ncc(Cl)cc1C(=O)N[C@H]1CC[C@H](Cn2c(=O)n(-c3cnc4c(N)ncnc4c3)c3ccccc32)CC1 [Example 319, N-((1r,4r)-4-((3-(4-aminopyrido[3,2-d]pyrimidin-7-yl)-2-oxo-2,3-dihydro-1H-benzo[d]imidazol-1-yl)methyl)cyclohexyl)-5-chloro-2-methylnicotinamide] | < 300 nM
Cc1ncc(Cl)cc1C(=O)N[C@H]1CC[C@H](Cn2c(=O)n(-c3ccncc3C(F)(F)F)c3ccccc32)CC1 [Example 320, 5-chloro-2-methyl-N-((1r,4r)-4-((2-oxo-3-(3-(trifluoro-methyl)pyridin-4-yl)-2,3-dihydro-1H-benzo[d]imidazol-1-yl)methyl)cyclohexyl) nicotinamide] | < 300 nM
CNC(=O)c1ccc(-n2c(=O)n(C[C@H]3CC[C@H](NC(=O)c4cc(Cl)cnc4CCOC)CC3)c3ccccc32)cn1 [Example 321, 5-(3-(((1r,4r)-4-(5-chloro-2-(2-methoxyethyl)nico-tinamido)cyclohexyl)methyl)-2-oxo-2,3-dihydro-1H-benzo [d]imidazol-1-yl)-N-methylpicolinamide] | < 300 nM
CNC(=O)c1ccc(-n2c(=O)n(C[C@H]3CC[C@H](NC(=O)c4cc(Cl)cnc4C4CCC4)CC3)c3ccccc32)cn1 [Example 322, 5-(3-(((1r,4r)-4-(5-chloro-2-cyclobutylnicotinamido)cyclohexyl)methyl)-2-oxo-2,3-dihydro-1H-benzo[d]imidazol-1-yl)-N-methyl-picolinamide] | < 300 nM
COc1ccc(-n2c(=O)n(C[C@H]3CC[C@H](NC(=O)c4cc(Cl)cnc4C(F)F)CC3)c3ccccc32)cn1 [Example 323, 5-chloro-2-(difluoromethyl)-N-((1r,4r)-4-((3-(6-methoxy-pyridin-3-yl)-2-oxo-2,3-di-hydro-1H-benzo[d]imidazol-1-yl)methyl)cyclohexyl)nico-tinamide] | < 300 nM
Cc1ccc(-n2c(=O)n(C[C@H]3CC[C@H](NC(=O)c4cc(Cl)cnc4C(F)F)CC3)c3ccccc32)cn1 [Example 324, 5-chloro-2-(difluoromethyl)-N-((1r,4r)-4-((3-(6-methyl-pyridin-3-yl)-2-oxo-2,3-dihydro-1H-benzo[d]imidazol-1-yl)methyl)cyclohexyl)nico-tinamide] | < 300 nM
CNC(=O)c1ccc(-n2c(=O)n(C[C@H]3CC[C@H](NC(=O)c4cc(Cl)cnc4C(F)F)CC3)c3ccccc32)cn1 [Example 325, 5-(3-(((1r,4r)-4-(5-chloro-2-(difluoromethyl)nicotina-mido)cyclohexyl)methyl)-2-oxo-2,3-dihydro-1H-benzo [d]imidazol-1-yl)-N-methylpicolinamide] | < 300 nM
Cn1cnc2cc(-n3c(=O)n(C[C@H]4CC[C@H](NC(=O)c5cc(Cl)cnc5C(F)(F)F)CC4)c4ccccc43)ccc21 [Example 326, 5-chloro-N-((1r,4r)-4-((1′-methyl-2-oxo-1′H-[1,5′-bibenzo[d]imidazol]-3(2H)-yl)methyl)cyclohexyl)-2-(trifluoromethyl)nicotinamide] | < 300 nM
O=C(N[C@H]1CC[C@H](Cn2c(=O)n(-c3ccc4cncn4c3)c3ccccc32)CC1)c1cc(Cl)cnc1C(F)(F)F [Example 327, 5-chloro-N-((1r,4r)-4-((3-(imidazo[1,5-a]pyridin-6-yl)-2-oxo-2,3-dihydro-1H-benzo[d]imidazol-1-yl)methyl)cyclohexyl)-2-(trifluoromethyl)nicotinamide] | < 300 nM
CNC(=O)c1ccc(-n2c(=O)n(C[C@H]3CC[C@H](NC(=O)c4cc(Cl)cnc4N(C)C)CC3)c3ccccc32)cn1 [Example 328, 5-(3-(((1r,4r)-4-(5-chloro-2-(dimethylamino)nicotinamido)cyclohexyl)methyl)-2-oxo-2,3-dihydro-1H-benzo[d]imidazol-1-yl)-N-methyl-picolinamide] | < 300 nM
COCc1ncc(Cl)cc1C(=O)N[C@H]1CC[C@H](Cn2c(=O)n(-c3ccc(C)nc3)c3ccccc32)CC1 [Example 329, 5-chloro-2-(methoxymethyl)-N-((1r,4r)-4-((3-(6-methyl-pyridin-3-yl)-2-oxo-2,3-dihydro-1H-benzo[d]imidazol-1-yl)methyl)cyclohexyl) nicotinamide] | < 300 nM
Cc1cc(C)c(-n2c(=O)n(C[C@H]3CC[C@H](NC(=O)c4cc(Cl)cnc4C)CC3)c3ccccc32)cn1 [Example 330, 5-chloro-N-((1r,4r)-4-((3-(4,6-dimethylpyridin-3-yl)-2-oxo-2,3-dihydro-1H-benzo [d]imidazol-1-yl)methyl)cyclohexyl)-2-methylnico-tinamide] | < 300 nM
Cc1ncc(Cl)cc1C(=O)N[C@H]1CC[C@H](Cn2c(=O)n(-c3ccnc(C)c3C)c3ccccc32)CC1 [Example 331, 5-chloro-N-((1r,4r)-4-((3-(2,3-dimethylpyridin-4-yl)-2-oxo-2,3-dihydro-1H-benzo [d]imidazol-1-yl)methyl)cyclohexyl)-2-methylnico-tinamide] | < 300 nM
CNc1ccc(-n2c(=O)n(C[C@H]3CC[C@H](NC(=O)c4cc(Cl)cnc4C(F)(F)F)CC3)c3ccccc32)cn1 [Example 332, 5-chloro-N-((1r,4r)-4-((3-(6-(methylamino)pyridin-3-yl)-2-oxo-2,3-dihydro-1H-benzo[d]imidazol-1-yl)methyl)cyclohexyl)-2-(trifluoromethyl) nicotinamide] | < 300 nM
CN(C)c1ccc(-n2c(=O)n(C[C@H]3CC[C@H](NC(=O)c4cc(Cl)cnc4C(F)(F)F)CC3)c3ccccc32)cn1 [Example 333, 5-chloro-N-((1r,4r)-4-((3-(6-(dimethylamino)pyridin-3-yl)-2-oxo-2,3-dihydro-1H-benzo [d]imidazol-1-yl)methyl)cyclohexyl)-2-(trifluoromethyl) nicotinamide] | < 300 nM
O=C(N[C@H]1CC[C@H](Cn2c(=O)n(-c3ccncc3Cl)c3ccccc32)CC1)c1cc(Cl)cnc1C(F)(F)F [Example 334, 5-chloro-N-((1r,4r)-4-((3-(3-chloropyridin-4-yl)-2-oxo-2,3-dihydro-1H-benzo[d]imidazol-1-yl)methyl)cyclo-hexyl)-2-(trifluoromethyl) nicotinamide] | < 300 nM
CNC(=O)c1ccc(-n2c(=O)n(C[C@H]3CC[C@H](NC(=O)c4cc(Cl)cnc4COC)CC3)c3ccccc32)cn1 [Example 335, 5-(3-(((1r,4r)-4-(5-chloro-2-(methoxymethyl)nico-tinamido)cyclohexyl)methyl)-2-oxo-2,3-dihydro-1H-benzo[d]imidazol-1-yl)-N-methylpicolinamide] | < 300 nM
Cc1cc(-n2c(=O)n(C[C@H]3CC[C@H](NC(=O)c4cc(Cl)cnc4C)CC3)c3ccccc32)c(C)cn1 [Example 336, 5-chloro-N-((1r,4r)-4-((3-(2,5-dimethylpyridin-4-yl)-2-oxo-2,3-dihydro-1H-benzo[d]imidazol-1-yl)methyl)cyclohexyl)-2-methylnicotinamide] | < 300 nM
Cc1ncc(Cl)cc1C(=O)N[C@H]1CC[C@H](Cn2c(=O)n(-c3cccc4cccnc34)c3ccccc32)CC1 [Example 337, 5-chloro-2-methyl-N-((1r,4r)-4-((2-oxo-3-(quinolin-8-yl)-2,3-dihydro-1H-benzo[d]imidazol-1-yl)methyl)cyclo-hexyl)nicotinamide] | < 300 nM
Cc1ncc(Cl)cc1C(=O)N[C@H]1CC[C@H](Cn2c(=O)n(-c3cncc4ccccc34)c3ccccc32)CC1 [Example 338, 5-chloro-N-((1r,4r)-4-((3-(isoquinolin-4-yl)-2-oxo-2,3-dihydro-1H-benzo[d]imidazol-1-yl)methyl)cyclo-hexyl)-2-methylnicotinamide] | < 300 nM
Cc1ncc(Cl)cc1C(=O)N[C@H]1CC[C@H](Cn2c(=O)n(-c3ccc4nn(C5COC5)nc4c3)c3ccccc32)CC1 [Example 340, 5-chloro-2-methyl-N-((1r,4r)-4-((3-(2-(oxetan-3-yl)-2H-benzo[d][1,2,3]triazol-5-yl)-2-oxo-2,3-dihydro-1H-benzo [d]imidazol-1-yl)methyl)cyclohexyl)nicotinamide] | < 300 nM
Cc1ncc(Cl)cc1C(=O)N[C@H]1CC[C@H](Cn2c(=O)n(-c3ccc4c(c3)nnn4C3COC3)c3ccccc32)CC1 [Example 341, 5-chloro-2-methyl-N-((1r,4r)-4-((3-(1-(oxetan-3-yl)-1H-benzo[d][1,2,3]triazol-5-yl)-2-oxo-2,3-dihydro-1H-benzo[d]imidazol-1-yl)methyl)cyclohexyl)nicotinamide] | < 300 nM
O=C(N[C@H]1CC[C@H](Cn2c(=O)n(-c3ccn4cncc4c3)c3ccccc32)CC1)c1cc(Cl)cnc1C(F)(F)F [Example 342, 5-chloro-N-((1r,4r)-4-((3-(imidazo[1,5-a]pyridin-7-yl)-2-oxo-2,3-dihydro-1H-benzo[d]imidazol-1-yl)methyl)cyclohexyl)-2-(tri-fluoromethyl)nicotinamide] | < 300 nM
Cc1ncc(Cl)cc1C(=O)N[C@H]1CC[C@H](Cn2c(=O)n(-c3cccc4cnccc34)c3ccccc32)CC1 [Example 343, 5-chloro-N-((1r,4r)-4-((3-(isoquinolin-5-yl)-2-oxo-2,3-dihydro-1H-benzo[d]imidazol-1-yl)methyl)cyclo-hexyl)-2-methylnicotinamide] | < 300 nM
Cc1ncc(Cl)cc1C(=O)N[C@H]1CC[C@H](Cn2c(=O)n(-c3ccc4ncccc4c3)c3ccccc32)CC1 [Example 344, 5-chloro-2-methyl-N-((1r,4r)-4-((2-oxo-3-(quinolin-6-yl)-2,3-dihydro-1H-benzo[d]imidazol-1-yl)methyl)cyclo-hexyl)nicotinamide] | < 300 nM
